Measured values reported in PubChem BioAssay (NCI).
“And” between values parts separate entries of the source, which are not always exact repeats. Equal values may be shown once.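 Compound exposure: 48 hours, 5 concentrations, 96-well plates. At the GI50, growth is halved. TGI denotes the concentration required for complete inhibition of growth.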

Legend:
Assay in all cases: growth of human tumour cells (NCI), 48 h
MALME-3M melanoma = system: MALME-3M melanoma
UO-31 renal = system: UO-31 renal
MDA-MB-231 breast = system: MDA-MB-231 breast
SN12C renal = system: SN12C renal
HL-60(TB) leukemia = system: HL-60(TB) leukemia
COLO 205 colon = system: COLO 205 colon
NCI-H23 lung = system: NCI-H23 lung
OVCAR-4 ovarian = system: OVCAR-4 ovarian
IGROV1 ovarian = system: IGROV1 ovarian
OVCAR-3 ovarian = system: OVCAR-3 ovarian

Structure (SMILES)	GI50 (MALME-3M melanoma)	TGI (MALME-3M melanoma)	GI50 (UO-31 renal)	TGI (UO-31 renal)	GI50 (MDA-MB-231 breast)	TGI (MDA-MB-231 breast)	GI50 (SN12C renal)	TGI (SN12C renal)	GI50 (HL-60(TB) leukemia)	TGI (HL-60(TB) leukemia)	GI50 (COLO 205 colon)	TGI (COLO 205 colon)	GI50 (NCI-H23 lung)	TGI (NCI-H23 lung)	GI50 (OVCAR-4 ovarian)	TGI (OVCAR-4 ovarian)	GI50 (IGROV1 ovarian)	TGI (IGROV1 ovarian)	GI50 (OVCAR-3 ovarian)	TGI (OVCAR-3 ovarian)
COc1cc2nc(N3CCCN(C)CC3)nc(NC3CCN(Cc4ccccc4)CC3)c2cc1OC	1.87 µM	3.37 µM	1.69 µM	3.2 µM	1.68 µM	4.75 µM	6.68 µM	25 µM	1.83 µM	4.3 µM	1.84 µM	3.51 µM	5.71 µM	19.7 µM	1.81 µM	4.79 µM	7.33 µM	25.3 µM	3.17 µM	9.41 µM
CCOC(=O)c1[nH]c2cc(Cl)ccc2c1[C@@H](C(=O)NC(C)(C)C)N(CC)C(=O)CCCCC#Cc1cccc2c1CN(C1CCC(=O)NC1=O)C2=O (stereo not given in full)	< 0.01 µM	0.456 µM	0.0425 µM	2.95 µM	< 0.01 µM	1.68 µM	0.283 µM	> 100 µM	< 0.01 µM	0.0959 µM	0.0308 µM	2.53 µM	3.93 µM	21.2 µM	< 0.01 µM	23.5 µM	< 0.0109 µM	11.1 µM	1.58 µM	> 38.9 µM
COc1cc(CCC[P+](c2ccccc2)(c2ccccc2)c2ccccc2)c(OC)c2c1OCO2	0.602 µM	6.92 µM	10.8 µM	44.1 µM	2.11 µM	10.3 µM	2.56 µM	10.5 µM	0.387 µM	2.35 µM	0.907 µM	3.38 µM	1.67 µM	10.3 µM	1.08 µM	16.1 µM	1 µM	11.7 µM	0.633 µM	10.7 µM
O=C(O)Cc1cccc2c(=O)cc(-c3ccccc3)oc12	725 µM	> 1000 µM	25.5 µM	> 64.4 µM and 174 µM and 334 µM	834 µM	> 1000 µM	508 µM	250 µM and > 964 µM	142 µM	> 250 µM and 193 µM	636 µM	> 1000 µM	581 µM	> 1000 µM	546 µM	250 µM and > 1000 µM	518 µM	> 1000 µM	568 µM	250 µM and > 1000 µM
